According to patent US8999654B2, “Method of identifying a compound for the treatment or prevention of obesity” (Omeros Corporation, priority 2003, dated 2015):

Experiments:
WT and GPR88 KO mice [1] = assay: Amphetamine-induced hyperactivity (locomotor activity in activity chambers); type: in vivo, mouse; conditions: amphetamine 2.5 mg/kg i.p., 30 minutes after injection, monitored 20 min, both WT and GPR88 KO mice, p<0.001
Method: Open field activity was monitored in VersaMax chambers (Accuscan Instruments, Columbus, Ohio) measuring 40×40 cm. Locomotor activity was detected by photobeams breaks as the animal crossed each beam. The animal was placed in the center of the field and then left undisturbed for a period of time (20 min to 2 hr) in order to measure its spontaneous activity in a novel environment. Measurements used to assess locomotor activity included: horizontal activity, total distance traveled, vertical activity (rearing events—animal raises up on hindlimbs), rotation, stereotypy, and distance traveled in the center compared to total distance traveled (center: total distance ratio).
Amphetamine-induced hyperactivity of GPR88 knockout mice was measured by injecting the animals with amphetamine and monitoring the animals' activity levels.

GPR88 KO and WT mice [2] = assay: Amphetamine-induced hyperactivity, open field activity test; type: in vivo, mouse; conditions: amphetamine 2.5 mg/kg i.p., 30 min before test, monitored 20 min; both WT and GPR88 KO mice, p<0.001
Excerpt: However, the activity level of KO mice (n=18) was much higher than that of the WT mice (n=18) (p<0.001 for the first 4-min block, p<0.05 for the second 4-min block, p<0.05 during the whole 20-min period). There was a strong genotype×treatment interaction for the first 4-min block (F(3,68)=10.5, p<0.01, two-way ANOVA).
Another test assays open field activity. Locomotor activity is detected by photobeam breaks as the animal crosses each beam. Measurements used to assess locomotor activity include, for example, total distance traveled, total number of rearing events (animal raises up on hindlimbs), and distance traveled in the center compared to total distance traveled (center: total distance ratio). Typically, mice are placed in the center of the field. Mice will normally explore the edges/walls first and then, over time, spend more time in the center as they become familiar with the environment. Open field activity determination provides data on the general activity level of mice (i.e. hypo- or hyper-active), as well as an indication of the animal's anxiety-related behaviors in an open-space.

GPR88 KO and WT mice [3] = assay: Amphetamine-induced reduction of prepulse inhibition (PPI) of acoustic startle; conditions: amphetamine 2.5 mg/kg i.p., tested 30 min later
WT and GPR88 KO mice [4] = assay: Amphetamine-induced reduction of prepulse inhibition (PPI) of the acoustic startle response; conditions: amphetamine 2.5 mg/kg i.p., tested 30 minutes later, both WT and GPR88 KO mice (129sv)
WT and GPR85 KO mice = conditions: 2.5 g/kg i.p. ethanol, rectal temperature 30 minutes post injection, both WT and GPR85 KO mice
Method: Initial sensitivity to alcohol is measured in mice after a single (acute) dose. […] Core body temperature was measured rectally (T0) (Physitemp) and then the mice were administered an i.p. dose of 2.5 mg/kg and placed in a Plexiglas dosing chamber. that is the same size as the animal's cage. Core body temperature was measured rectally 30 minutes post injection (T1) and returned to their home cage. Mice were housed in the testing room overnight.

[5] = tested on: CHO cells stably transfected with a GPCR expression vector; assay: Intracellular calcium measurement using FLIPR; type: cell-based; conditions: positive controls; FLIPR fluorescence, signal measured for approximately 200 seconds
Method: Changes in intracellular calcium levels are another recognized indicator of G protein-coupled receptor activity, and such assays can be employed to screen for modulators of GPCR activity. For example, CHO cells stably transfected with a GPCR expression vector are plated at a density of 40,000 cells/well in 96-well plates specially designed to discriminate fluorescence signals emanating from the various wells on the plate. The cells are incubated for 60 minutes at 37° C. in modified Dulbecco's PBS containing pyruvate and 1 g/L glucose with the addition of 1% fetal bovine serum and one of four calcium indicator dyes (Fluo-3™ AM, Fluo-4™ AM, Calcium Green™-1 AM, or Oregon Green™ BAPTA-1 AM). Plates are washed once with modified Dulbecco's PBS without 1% fetal bovine serum and incubated for 10 minutes at 37° C. to remove residual dye from the cellular membrane. […] Fluorescence is measured by Molecular Device's FLIPR with an argon laser (excitation […]) (Kuntzweiler et al., Drug Development Research, 44(1):14-20 (1998)).
Basal fluorescence of cells was measured for 20 seconds prior to addition of candidate agonist, ATP, or A23187, and the basal fluorescence level was subtracted from the response signal. The calcium signal is measured for approximately 200 seconds, taking readings every two seconds. […]

CC(N)Cc1ccccc1 (centres unmarked) [amphetamine]
locomotor activity compared to baseline in the absence of drugs (WT and GPR88 KO mice [1]): significantly higher activity
locomotor activity after amphetamine compared to baseline locomotor activity in the absence of drugs (GPR88 KO and WT mice [2]): significantly higher activity
startle responses to the 120 dB stimulus after amphetamine treatment (GPR88 KO and WT mice [3]; both WT and GPR88 KO mice (129sv)): significantly decreased
PPI after amphetamine treatment (GPR88 KO and WT mice [3]; both WT and GPR88 KO mice, p<0.001): significant reduction of PPI
startle response to the 120 dB stimulus (WT and GPR88 KO mice [4]): significantly decreased

CCO [ethanol]
effect on core body temperature (hypothermic effect) (WT and GPR85 KO mice): reduced body temperature in both WT and KO mice

CNc1ccc2oc(C[C@H]3O[C@@]4(CC[C@H]3C)O[C@H]([C@H](C)C(=O)c3ccc[nH]3)[C@H](C)C[C@H]4C)nc2c1C(=O)O [A23187]
increase of calcium signal above baseline levels [5]: 200%

Nc1ncnc2c1ncn2[C@@H]1O[C@H](COP(=O)(O)OP(=O)(O)OP(=O)(O)O)[C@@H](O)[C@H]1O [ATP]
increase of calcium signal above baseline levels [5]: 200%
